Data set [1] concerns Escherichia coli. In words: Antibacterial activity against Escherichia coli. Type of data set: functional.
Data set [2] in a line: Hemolytic activity in human red blood cells. Type of data set: toxicity, cell-based, Erythrocyte. The note with it: red blood cells.
The subject of data set [3] is Enterococcus faecium. In words: Antibacterial activity against Enterococcus faecium. Type of data set: functional.
Data set [4] is described as follows: Hemolytic activity in human RBC assessed as hemolysis measured after 24 hrs. It is filed as toxicity, cell-based, Erythrocyte. The note with it: red blood cells.
Data set [5] relates to Staphylococcus aureus. Kind of data set: Antibacterial activity against Staphylococcus aureus. It is filed as functional.
The subject of data set [6] is Pseudomonas aeruginosa. In words: Antibacterial activity against Pseudomonas aeruginosa. It is filed as functional.
A further data set deals with Erythrocyte. In words: Hemolytic activity in sheep RBC incubated for 30 mins. Type of data set: toxicity, cell-based, Ovis aries. The note with it: 0.5 h.
Data set [7] relates to Pseudomonas aeruginosa. In words: Antibacterial activity against Pseudomonas aeruginosa ATCC 27853 assessed as bacterial growth inhibition measured for 18 hrs by CLSI-protocol based Mueller-Hinton Broth micro-dilution assay. Type of data set: functional.
The subject of data set [8] is Pseudomonas aeruginosa. Kind of data set: Antibacterial activity against Pseudomonas aeruginosa PAO1 assessed as bacterial growth inhibition measured for 18 hrs by CLSI-protocol based Mueller-Hinton Broth micro-dilution assay. It is filed as functional.
The subject of data set [9] is Bacillus subtilis. Kind of data set: Antibacterial activity against Bacillus subtilis 168 assessed as bacterial growth inhibition measured for 18 hrs by CLSI-protocol based Mueller-Hinton Broth micro-dilution assay. Type of data set: functional.
The test system of data set [10] is Staphylococcus aureus. In words: Antibacterial activity against methicillin-resistant Staphylococcus aureus ATCC BAA1720 assessed as bacterial growth inhibition measured for 18 hrs by CLSI-protocol based Mueller-Hinton Broth micro-dilution assay. Type of data set: functional.
Data set [11] has as its system Staphylococcus aureus. In words: Antibacterial activity against Staphylococcus aureus ATCC 29213 assessed as bacterial growth inhibition measured for 18 hrs by CLSI-protocol based Mueller-Hinton Broth micro-dilution assay. Type of data set: functional.
A further data set deals with Salmonella typhimurium. In words: Antibacterial activity against Salmonella enterica subsp. enterica serovar Typhimurium LT2 assessed as bacterial growth inhibition measured for 18 hrs by CLSI-protocol based Mueller-Hinton Broth micro-dilution assay. It is filed as functional.
Data set [12] relates to Escherichia coli. Kind of data set: Antibacterial activity against Escherichia coli MG1655 assessed as bacterial growth inhibition measured for 18 hrs by CLSI-protocol based Mueller-Hinton Broth micro-dilution assay. It is filed as functional.
Data set [13] has as its system Escherichia coli. In words: Antibacterial activity against Escherichia coli K12 assessed as bacterial growth inhibition measured for 18 hrs by CLSI-protocol based Mueller-Hinton Broth micro-dilution assay. It is filed as functional.
Data set [14] has as its system Bacillus subtilis. In words: Antibacterial activity against Bacillus subtilis assessed as reduction in microbial growth. Type of data set: functional.
In data set [15] the test system is Escherichia coli. In words: Antibacterial activity against Escherichia coli ATCC 25922 assessed as reduction in bacterial growth by broth microdilution method. It is filed as functional.
For another data set, the system named is Klebsiella pneumoniae. Kind of data set: Antibacterial activity against Klebsiella pneumoniae. Type of data set: functional.
For data set [16], the system named is Staphylococcus aureus. In words: Antibacterial activity against Staphylococcus aureus ATCC 25923 assessed as reduction in bacterial growth incubated for 18 to 24 hrs by broth microdilution method. It is filed as functional. The note with it: time 18-24 hrs.
The subject of a further data set is Acinetobacter baumannii. Kind of data set: Antibacterial activity against Acinetobacter baumannii assessed as bacterial growth inhibition. It is filed as functional.
Data set [17] deals with Staphylococcus epidermidis. Kind of data set: Antibacterial activity against Staphylococcus epidermidis assessed as reduction in microbial growth. It is filed as functional.
Data set [18] relates to Pseudomonas aeruginosa. Kind of data set: Antibacterial activity against Pseudomonas aeruginosa ATCC 15442 assessed as growth inhibition. It is filed as functional.
For another data set, the system named is Enterococcus faecalis. Kind of data set: Antibacterial activity against Enterococcus faecalis assessed as reduction in microbial growth. Type of data set: functional.
Data set [19] is described as follows: Hemolytic activity in human RBC. Type of data set: toxicity, cell-based, Erythrocyte. Particulars: red blood cells.
Data set [20] relates to Bacillus subtilis. Kind of data set: Antibacterial activity against Bacillus subtilis assessed as reduction in bacterial growth incubated for 24 hrs by broth microdilution assay. Type of data set: functional.
Data set [21] relates to Mycolicibacterium smegmatis. Kind of data set: Antimycobacterial activity against Mycobacterium smegmatis mc2 155 assessed as reduction in bacterial cell growth by resazurin reduction method. It is filed as functional.
The subject of data set [22] is Staphylococcus aureus. In words: Antibacterial activity against methicillin-resistant Staphylococcus aureus ATCC 33591 assessed as reduction in bacterial growth incubated for 18 hrs by agar dilution method. It is filed as functional.
Data set [23] relates to Pseudomonas aeruginosa. Kind of data set: Antibacterial activity against Pseudomonas aeruginosa ATCC 27853 assessed as reduction in microbial growth incubated for 16 to 20 hrs by CLSI protocol based Muller Hinton broth assay. It is filed as functional. The note with it: time 16-20 hrs.
Data set [24] relates to Escherichia coli. In words: Antibacterial activity against Escherichia coli ATCC 25922 assessed as reduction in microbial growth incubated for 16 to 20 hrs by CLSI protocol based Muller Hinton broth assay. The note with it: time 16-20 hrs. It is filed as functional.
Data set [25] deals with Enterococcus faecium. In words: Antibacterial activity against vancomycin resistant Enterococcus faecium ATCC 700221 assessed as inhibition of bacterial growth incubated for 48 hrs by CLSI-based broth microdilution assay. Type of data set: functional.

≈ marks a conversion by molar mass, not a printed value. Bridge positions count the residues as written; N and C are the ends. Square brackets hold non-standard residues; d marks the D form. Peptide text beside a SMILES is read from it. S5 = C=CCCC[C@](C)(N)C(=O)O

Here are results for four molecules from ChEMBL document CHEMBL5608163, “Structure modification of anoplin for fighting resistant bacteria” (Eur J Med Chem, 2024).

Consider `CC[C@H](C)[C@H](NC(=O)[C@H](CCCCN)NC(=O)[C@H](CCCCN)NC(=O)[C@H](CC(C)C)NC(=O)[C@H](CC(C)C)NC(=O)CN)C(=O)N[C@@H](CCCCN)C(=O)N[C@@H](CCCCN)C(=O)N[C@@H](CC(C)C)C(=O)N[C@@H](CC(C)C)C(N)=O`, for which the MIC amounted to 25 µM (≈ 28.8 µg/mL) against Escherichia coli [1], 56.9 µM (≈ 65.6 µg/mL) in the data set with Enterococcus faecium [3], 256 µM (≈ 295 µg/mL) in the data set on Staphylococcus aureus [5] and 28.4 µM (≈ 32.7 µg/mL) with Pseudomonas aeruginosa [6]. Besides, the HC50 in data set [2] is under 500 µM. Besides, the HC50 at 24 h in [4] was over 500 µM.

`CC[C@H](C)[C@@H]1NC(=O)[C@@](C)(NC(=O)[C@H](CCCCN)NC(=O)[C@H](CC(C)C)NC(=O)[C@H](CC(C)C)NC(=O)CN)CCC/C=C\CCC[C@@](C)(C(=O)N[C@@H](CC(C)C)C(N)=O)NC(=O)[C@H]([C@@H](C)O)NC(=O)[C@H](CCCCN)NC1=O` (H-GLLK[S5]IKT[S5]L-NH2; staple (Z) 5-9) came in with an HC10 in the data set with Erythrocyte of 8 µM. Besides, the MIC in the data set with Pseudomonas aeruginosa [7] came out at 32 µM (≈ 36.3 µg/mL); in the data set on Pseudomonas aeruginosa [8], 16 µM (≈ 18.2 µg/mL); in the data set on Bacillus subtilis [9], 4 µM (≈ 4.54 µg/mL); with Staphylococcus aureus [10], 4 µM (≈ 4.54 µg/mL); in the data set on Staphylococcus aureus [11] it was 4 µM (≈ 4.54 µg/mL); with Salmonella typhimurium, 32 µM (≈ 36.3 µg/mL). Also, the MIC is 32 µM (≈ 36.3 µg/mL) in the data set on Escherichia coli [12] and 8 µM (≈ 9.08 µg/mL) in the data set on Escherichia coli [13].

Consider `CC[C@H](C)[C@H](NC(=O)[C@H](CCCNC(=N)N)NC(=O)[C@H](CCCCN)NC(=O)[C@H](CC(C)C)NC(=O)[C@H](CC(C)C)NC(=O)CN)C(=O)N[C@@H](CCCCN)C(=O)N[C@H](C(=O)N[C@@H](CC(C)C)C(=O)N[C@@H](C)C(N)=O)[C@@H](C)O` (H-GLLKRIKTLA-NH2), for which the MIC in the data set on Bacillus subtilis [14] was 32 µM; in the data set on Escherichia coli [15], 43.2 µM (≈ 48 µg/mL); against Klebsiella pneumoniae, 256 µM (≈ 285 µg/mL); in the data set with Staphylococcus aureus [16], 43.2 µM (≈ 48 µg/mL); in the data set on Acinetobacter baumannii, at least 512 µM; in data set [17], 64 µM. For the same molecule, the MIC was 64 µM (≈ 71.1 µg/mL) in the data set with Pseudomonas aeruginosa [18] and at least 512 µM in the data set on Enterococcus faecalis. The same molecule came in with an HC50 in [19] of at least 512 µM.

As to `CC[C@H](C)[C@H](NC(=O)[C@H](Cc1ccccc1)NC(=O)[C@H](CCCCN)NC(=O)[C@H](CC(C)C)NC(=O)[C@H](CC(C)C)NC(=O)CN)C(=O)N[C@@H](CCCCN)C(=O)N[C@@H](CCCCN)C(=O)N[C@@H](CC(C)C)C(=O)N[C@@H](CC(C)C)C(N)=O` (H-GLLKFIKKLL-NH2), the MIC in the data set on Bacillus subtilis [20] was determined as 25.6 µM (≈ 30 µg/mL); in data set [21], 12.8 µM (≈ 15 µg/mL); in the data set with Staphylococcus aureus [22], 9.5 µM (≈ 11.1 µg/mL); with Pseudomonas aeruginosa [23], 28.4 µM; in the data set on Escherichia coli [24] it was 9.5 µM; in the data set on Enterococcus faecium [25], 9.5 µM (≈ 11.1 µg/mL). For the same molecule, the HC50 at 24 h in data set [4] worked out at 13.6 µM.
